Laboratory results: patent US20090221554A1, “METHOD OF TREATING COGNITIVE IMPAIRMENT” (priority 2008, published 2009)

Key:
[1] = test system: extracellular level of ACh in the hippocampus; test: Extracellular level of acetylcholine (ACh) in the rat hippocampus (microdialysis, HPLC-ECD); type: in vivo, rats; conditions: vs 1% CMC
Procedure: Food and water were available ad libitum. All animal care and treatments were conducted in accordance with the Guidelines for the Care and Use of Laboratory Animals established at the Central Research Laboratory, Zenyaku Kogyo Co., Ltd.

[2] = test system: cognitive impairment induced by scopolamine; test: Passive avoidance task, scopolamine-induced cognitive impairment in mice; type: in vivo
Procedure: Male mice of the ICR strain (Charles River Laboratories Japan, Inc.) at the ages of 8 to 9 weeks were used in the experiment. They were housed in a cage in group of 3 or 4 mice, in a room maintained at around 22° C. with a 12-h light/dark cycle. Food and water were available ad libitum. All animal care and treatments were conducted in accordance with the Guidelines for the Care and Use of Laboratory Animals established at the Central Research Laboratory, Zenyaku Kogyo Co., Ltd.
Compound 1 and donepezil were suspended in 1% carboxymethyl cellulose (CMC). […] For the coadministration studies of Compound 1 and donepezil, both drug suspensions were mixed together and this mixed suspension was injected. All drugs were prepared immediately before use and orally administered in a volume of 10 ml/kg.
The passive avoidance apparatus (Neuroscience Inc.) consisted of an illuminated chamber and a larger dark chamber. Two chambers were separated by a guillotine door. Oral administration of compound 1 at doses of 0.0001 mg/kg or 0.001 mg/kg and/or donepezil at doses of 0.01 and 0.1 mg/kg was given 60 min before the acquisition trial. […] Matched control group received vehicle only. In the acquisition trial, each mouse was placed in the illuminated chamber. Immediately after the entry into the dark chamber, the door was closed and inescapable scrambled electric shock (100 V, 0.4 mA, 1.5 sec) was delivered through the floor grid. Twenty-four h later, each mouse was placed in the illuminated chamber for retention trial. The interval between the placement in the illuminated chamber and the entry into the dark chamber was measured as step through latency (maximum 300 sec).
P level of <0.05 was considered indicative of statistical significance for the tests.

With `O=C1N=C2C=CC=CN2C12Cc1ccccc1C2` [compound 1, spiro[imidazo[1,2-a]pyridin-2(3H)-one-3,2′-indan]] the “extracellular level of ACh in the hippocampus” value ([1]; compound 1 0.001 mg/kg p.o.) was “did not significantly increase”, the step-through latency ([2]; compound 1 0.0001 mg/kg p.o. 60 min before acquisition, scopolamine 1 mg/kg i.p., retention trial 24 h, vs 1% CMC + scopolamine) was “did not significantly prolong” and the step-through latency ([2]; compound 1 0.001 mg/kg p.o., scopolamine 1 mg/kg i.p., vs 1% CMC + scopolamine, P<0.05) was “prolonged”.
With `COc1cc2c(cc1OC)C(=O)C(CC1CCN(Cc3ccccc3)CC1)C2` (stereo not shown) [donepezil] the “extracellular level of ACh in the hippocampus” value ([1]; donepezil 1 mg/kg p.o.) was “did not significantly increase”, the step-through latency ([2]; donepezil 0.01 mg/kg p.o., scopolamine 1 mg/kg i.p., vs 1% CMC + scopolamine) was “did not significantly prolong” and the step-through latency ([2]; donepezil 0.1 mg/kg p.o., scopolamine 1 mg/kg i.p., vs 1% CMC + scopolamine, P<0.05) was “prolonged”.
With `CN1[C@@H]2C[C@@H](OC(=O)[C@H](CO)c3ccccc3)C[C@H]1[C@@H]1O[C@@H]12` [scopolamine] the step-through latency ([2]; 1% CMC + scopolamine 1 mg/kg i.p. vs 1% CMC + saline control, P<0.01) was “markedly shorter”.
